Molecules are shown by their SMILES.

Broadly, the IC50 is the midpoint of a concentration-inhibition curve. Usually IC90 stands for the concentration at which the effect reaches the 90% level.

The assay deals with Plasmodium berghei. In words: Luciferase/luciferin-expressing antifolate-resistant parasites were used to infect a culture of HepG2 cells that were pre-incubated with compounds. Infected hepatocytes emit light due to the luciferase reaction. Assay results are presented as the percent inhibition of light emission compared to control. […]. Format: functional. As to conditions: sporozoite; for IC90: read-out: LUCIFERASE INFECTION ASSAY - IC90.

Setting [1] is: read-out: LUCIFERASE INFECTION ASSAY - IC50.

With `Cc1ccc(-c2cs/c(=N\CCN3CCOCC3)n2/N=C/c2cccs2)cc1C`, the concentration for an effect of 90% (IC90) is more than 10 µM. Also, the IC50 (HEPG2TOX_HILL_SLOPE 0.856, HEPG2TOX_R_SQUARED 0.317, read-out: LUCIFERASE INFECTION ASSAY - IC50) is more than 10 µM.

With `Cc1noc(/C=C/c2nn(C)cc2Cl)c1[N+](=O)[O-]`, the IC90 turned out to be 11.7 µM. For the same compound, the IC50 (HEPG2TOX_HILL_SLOPE 8.49, HEPG2TOX_R_SQUARED 0.211, PBLUC_HILL_SLOPE 2.15, PBLUC_R_SQUARED 0.722, read-out: LUCIFERASE INFECTION ASSAY - IC50) was found to be 4.22 µM.

On to `COc1ccc(-c2cnc3c(Nc4cccc(OC(F)(F)C(F)F)c4)nccn23)cc1`, for which the IC90 came to 2.67 µM. Moreover, the IC50 (HEPG2TOX_HILL_SLOPE 1.95, HEPG2TOX_R_SQUARED 0.977, PBLUC_HILL_SLOPE 27.6, PBLUC_R_SQUARED 0.693, read-out: LUCIFERASE INFECTION ASSAY - IC50) came to 2.47 µM.

As to `CCc1ccc(-n2nnnc2-c2cnc(N)nc2-c2ccccc2)cc1`, the IC90 came out at 1.61 µM. Also, the half-maximal inhibitory concentration (IC50) (HEPG2TOX_HILL_SLOPE 0.931, HEPG2TOX_R_SQUARED 0.943, PBLUC_HILL_SLOPE 1.76, PBLUC_R_SQUARED 0.648, read-out: LUCIFERASE INFECTION ASSAY - IC50) came to 0.463 µM.

Take `CCN(CC)CCn1c(NC(=O)c2cc(-c3cccs3)nn2-c2ccccc2)nc2ccccc21`: the IC90 was more than 10 µM. The IC50 (PBLUC_HILL_SLOPE 2.69, PBLUC_R_SQUARED 0.0924, read-out: LUCIFERASE INFECTION ASSAY - IC50) was found to be 6.76 µM.

For the compound `NC1=NC(=S)N=C(N)C1=C(CS(=O)(=O)c1ccccc1)c1ccccc1`, the concentration for an effect of 90% (IC90) is more than 8.58 µM. Besides, the IC50 (PBLUC_HILL_SLOPE 1.77, PBLUC_R_SQUARED 0.148, read-out: LUCIFERASE INFECTION ASSAY - IC50) is more than 8.58 µM.

On to `COC(=O)c1c(COC(=O)/C=C/c2ccc(OCC#N)c(OC)c2)nc2ccccc2c1-c1ccccc1`, for which the IC90 was more than 10 µM. For the same compound, the IC50 under setting [1] is more than 10 µM.

Take `CCN1CCC(N(C)c2ncnc3sc(-c4ccccc4)cc23)CC1`: the IC90 is more than 10 µM. Further, the IC50 under setting [1] was more than 10 µM.

Consider `CC(C)(C)c1ccc(CSc2nnc(-c3ccc(C(C)(C)C)cc3)n2Cc2ccco2)cc1`, for which the IC90 was more than 7.18 µM. Further, where the note is “PBLUC_HILL_SLOPE 3.03, PBLUC_R_SQUARED 0.36, read-out: LUCIFERASE INFECTION ASSAY - IC50”, the IC50 was 5.09 µM.

For the compound `Cn1c2ccccc2c2ccc(CC(=O)N/N=C/c3ccccc3)cc21`, the IC90 is more than 10 µM. The IC50 under setting [1] is more than 10 µM.

Regarding `Cc1cccc(C(=O)N[C@H](C(=O)Nc2nc(-c3ccccn3)cs2)C(C)C)c1`, the IC90 came to 3.94 µM. For the same compound, the IC50 (HEPG2TOX_HILL_SLOPE 1.86, HEPG2TOX_R_SQUARED 0.615, PBLUC_HILL_SLOPE 3.31, PBLUC_R_SQUARED 0.556, read-out: LUCIFERASE INFECTION ASSAY - IC50) came to 2.03 µM.

For the compound `COc1ccc(-c2cnc3ccc(NCc4ccccn4)nn23)cc1OC`, the IC90 stood at 5.88 µM. In addition, for the setting “HEPG2TOX_HILL_SLOPE 0.427, HEPG2TOX_R_SQUARED 0.871, PBLUC_HILL_SLOPE 2.47, PBLUC_R_SQUARED 0.694, read-out: LUCIFERASE INFECTION ASSAY - IC50”, the IC50 was determined as 2.41 µM.

Turning to `COCOc1ccc(-c2cc(-c3cc(C)c(O)c(C)c3)cnc2N)cc1`, the IC90 turned out to be 6.77 µM. Also, the IC50 under setting [1] was 4.46 µM.

For `C=C(C)CN(CC)c1nc(N)c(C#N)c(C(C#N)Cc2ccc(C)cc2)c1C#N` (stereo not given), the IC90 was 8.18 µM. Besides, the IC50 (HEPG2TOX_HILL_SLOPE 73.4, HEPG2TOX_R_SQUARED 0.557, PBLUC_HILL_SLOPE 3.82, PBLUC_R_SQUARED 0.311, read-out: LUCIFERASE INFECTION ASSAY - IC50) is 4.6 µM.

For the compound `CC1CCN(C(=O)COC(=O)c2cc(-c3ccc(Cl)cc3)nc3ccccc23)c2ccccc2S1` (stereo not given), the IC90 is more than 10 µM. In addition, where the note is “PBLUC_HILL_SLOPE 0.574, PBLUC_R_SQUARED 0.62, read-out: LUCIFERASE INFECTION ASSAY - IC50”, the IC50 worked out at 2.73 µM.

On to `NS(=O)(=O)c1ccc(-n2ncc(Nc3ccc(F)cc3)c(Cl)c2=O)cc1`, for which the IC90 is more than 10 µM. In addition, the IC50 (HEPG2TOX_HILL_SLOPE 0.263, HEPG2TOX_R_SQUARED 0.596, PBLUC_HILL_SLOPE 7.27, PBLUC_R_SQUARED 0.0377, read-out: LUCIFERASE INFECTION ASSAY - IC50) is more than 10 µM.

In the case of `Nc1ncc(-c2cccc(O)c2)cc1-c1cccc(C(F)(F)F)c1`, the IC90 amounted to 3.76 µM. For the same compound, under “HEPG2TOX_HILL_SLOPE 7.78, HEPG2TOX_R_SQUARED 0.72, PBLUC_HILL_SLOPE 13.3, PBLUC_R_SQUARED 0.696, read-out: LUCIFERASE INFECTION ASSAY - IC50”, the IC50 is 3.18 µM.

Turning to `COc1cc(-c2[nH]nc3nccc(/C=C/c4ccccc4)c23)cc(OC)c1OC`, the IC90 was determined as 0.962 µM. Besides, where the note is “HEPG2TOX_HILL_SLOPE 1.93, HEPG2TOX_R_SQUARED 0.947, PBLUC_HILL_SLOPE 2.35, PBLUC_R_SQUARED 0.701, read-out: LUCIFERASE INFECTION ASSAY - IC50”, the IC50 stood at 0.378 µM.

As to `Cc1cc2ncc(-c3ccnc(SCC(=O)c4ccc(Cl)cc4)n3)c(C)n2n1`, the IC90 is more than 8.05 µM. Also, under setting [1], the IC50 is more than 8.05 µM.

On to `O=C(CSCCCN1CCN(c2cccc(Cl)c2)CC1)NNC(=O)Nc1cc(Cl)cc(Cl)c1`, for which the IC90 is more than 6.22 µM. Moreover, the IC50 under setting [1] is more than 6.22 µM.

Take `CC1CCCC(N2CC(C(=O)Nc3nc(-c4ccccn4)cs3)CC2=O)C1C` (stereo not given): the IC90 came out at 3.66 µM. In addition, the IC50 (HEPG2TOX_HILL_SLOPE 6.97, HEPG2TOX_R_SQUARED 0.551, PBLUC_HILL_SLOPE 16.8, PBLUC_R_SQUARED 0.476, read-out: LUCIFERASE INFECTION ASSAY - IC50) was 3.21 µM.

In the case of `CCC(C)NC(=S)N/N=C/c1cc(Cl)cc(Cl)c1O` (stereo not given), the IC90 is more than 10.3 µM. The IC50 under setting [1] was more than 10.3 µM.

For `CN(C(=O)COC(=O)c1nc(Cl)c(Cl)c(Cl)c1Cl)C1CCS(=O)(=O)C1` (stereo not given), the IC90 was more than 10 µM. Further, the IC50 (HEPG2TOX_HILL_SLOPE 15.2, HEPG2TOX_R_SQUARED 0.451, read-out: LUCIFERASE INFECTION ASSAY - IC50) was more than 10 µM.

As for `O=C(CSc1nnc(-c2ccco2)o1)OCc1cc(F)cc2c1OC(c1ccccc1)OC2` (stereo not given), the IC90 is 4.11 µM. In addition, the IC50 (HEPG2TOX_HILL_SLOPE 2.76, 2.27, HEPG2TOX_R_SQUARED 0.916, 0.957, PBLUC_HILL_SLOPE 6.02, 15.8, PBLUC_R_SQUARED 0.479, 0.425, read-out: LUCIFERASE INFECTION ASSAY - IC50) is 3.17 µM.

Turning to `COc1ccc(C(=O)Nc2ccc3nc(-c4ccccc4)nn3c2)cc1F`, the IC90 is more than 10 µM. Also, where the note is “FFLUC_HILL_SLOPE 22.9, FFLUC_R_SQUARED 0.117, read-out: LUCIFERASE INFECTION ASSAY - IC50”, the IC50 was more than 10 µM.

As to `Cc1cc(C)n(-c2ccc3c(Cl)cc(Cl)c(O)c3n2)n1`, the IC90 was 0.393 µM. Moreover, the IC50 (HEPG2TOX_HILL_SLOPE 0.646, HEPG2TOX_R_SQUARED 0.957, PBLUC_HILL_SLOPE 194, PBLUC_R_SQUARED 0.635, read-out: LUCIFERASE INFECTION ASSAY - IC50) amounted to 0.388 µM.

For `CCCCCCc1nc(SCC(=O)Nc2cc(C)on2)c2c(=O)n(C)c(=O)n(CCC)c2n1`, the IC90 was more than 10 µM. Besides, the IC50 under setting [1] was more than 10 µM.

Turning to `COc1ccc(-c2nnc(SC(C)C(=O)NCCC3=CCCCC3)[nH]2)cc1` (stereo not given), the concentration for an effect of 90% (IC90) was determined as 0.379 µM. In addition, the IC50 (HEPG2TOX_HILL_SLOPE 1.28, HEPG2TOX_R_SQUARED 0.906, PBLUC_HILL_SLOPE 22.1, PBLUC_R_SQUARED 0.622, read-out: LUCIFERASE INFECTION ASSAY - IC50) is 0.343 µM.

`Cc1cccc(C(=O)Nc2sc3c(c2C(=O)N2CCCCC2)CCCCC3)c1`: the IC90 was 6.3 µM. Moreover, the IC50 under setting [1] stood at 0.805 µM.

Turning to `COc1ccc(/C=C/C(=O)Nc2ccc(C34CC5CC(CC(O)(C5)C3)C4)cc2)cc1OC`, the IC90 worked out at 4.89 µM. In addition, the IC50 (HEPG2TOX_HILL_SLOPE 4.85, 2.53, HEPG2TOX_R_SQUARED 0.902, 0.960, PBLUC_HILL_SLOPE 2.45, PBLUC_R_SQUARED 0.68, read-out: LUCIFERASE INFECTION ASSAY - IC50) amounted to 1.99 µM.

As to `Cc1ccc(Br)cc1NC(=O)C(C)NC(=O)OC(C)(C)C` (stereo not given), the IC90 is more than 10 µM. In addition, under setting [1], the half-maximal inhibitory concentration (IC50) was more than 10 µM.

As to `CC(Sc1nc(Nc2ccccc2)c2ccccc2n1)C(=O)Nc1sccc1C#N` (stereo not given), the IC90 is more than 10 µM. Moreover, the IC50 (HEPG2TOX_HILL_SLOPE 2.3, HEPG2TOX_R_SQUARED 0.812, read-out: LUCIFERASE INFECTION ASSAY - IC50) was more than 10 µM.

Consider `Cn1c(=O)[nH]c(=O)c2ccc(C(=O)/N=c3/sccn3Cc3ccc(Cl)cc3Cl)nc21`, for which the IC90 was 5.16 µM. Also, where the note is “HEPG2TOX_HILL_SLOPE 1.78, HEPG2TOX_R_SQUARED 0.947, PBLUC_HILL_SLOPE 2.11, PBLUC_R_SQUARED 0.878, read-out: LUCIFERASE INFECTION ASSAY - IC50”, the IC50 amounted to 1.82 µM.

Consider `O=C(NC(c1ccccc1)c1ccccc1)[C@@H]1C[C@@H](OCc2ccccc2)CN1CC1CCCCC1`, for which the IC90 was more than 6.84 µM. The IC50 (FFLUC_HILL_SLOPE 11.2, FFLUC_R_SQUARED 0.284, read-out: LUCIFERASE INFECTION ASSAY - IC50) is more than 6.84 µM.

On to `O=C(Nc1ccccc1)c1ccc(CN2CCC(O)CC2)cc1`, for which the IC90 was more than 10 µM. Also, the IC50 (FFLUC_HILL_SLOPE 0.964, FFLUC_R_SQUARED 0.857, PBLUC_HILL_SLOPE 0.791, PBLUC_R_SQUARED 0.696, read-out: LUCIFERASE INFECTION ASSAY - IC50) was 1.04 µM.
